# Reference: US10137181B2, “Isolated donor MHC-derived peptide and uses thereof” (INSERM (INSTITUT NATIONAL DE LA SANTÉ ET DE LA RECHERCHE …, priority 2014, dated 2018)
# Legend:
# CD8^+CD40Ig Tregs [1] = assay: MLR coculture assay: CD8+CD40Ig Treg activation (CD25 expression) by donor MHC-derived peptides in the presence of syngeneic pDCs; type: cell-based, rat; settings: 6 days culture, CpG-matured syngeneic pDCs; for activation of CD8+CD40Ig Tregs (CD25 upregulation), in words: individual peptide, derivatives compared with Bu31
# Text: FIG. 1: Analysis of CD8+CD45RClow Tregs activation in response to donor-derived peptide stimulation. (A) CD8+ Tregs were cocultured for 6 days with syngeneic CpG-matured pDCs in the presence of peptides. For each experiment, the percentage of CD25 positive Tregs after 6 days of coculture with pDCs only, was given the value 1. Mean value 1 is equal to 32.85±1.98%. Results are expressed as the ratio±SEM between the percentage of CD25 positive cells after peptide stimulation and percentage of CD25 positive cells in the control condition without peptide. *p<0.05, **p<0.01 and ***p<0.001 versus control condition (value 1.0). n=4 to 18 for each peptide. (B) Analysis of Treg activation in response to Bu31 shorter peptide derivatives. On the left, 15 Bu31-derivatives are detailed and classified by aa sequence length, from 9 aa to 15 aa. The box highlights mismatched aa between the donor and recipient. On the right, Treg activation in response to Bu31-derivatives was analyzed by CD25 expression. CD8+ Tregs were cocultured for 6 days with syngeneic CpG-matured pDCs in the presence of each peptide. Bars represent the ratio between the percentage of CD25 positive cells after peptide stimulation and percentage of CD25 positive cells in the control condition without peptide. *p<0.05, **p<0.01 versus Bu31 condition. n=3 to 14 for each peptide.
# (§1) Mixed lymphocyte reaction: For MLR coculture assays, pDCs from LEW.1A naive rats (1.25×10^4 cells), syngeneic CD8^+CD40Ig Tregs (5×10^4 cells) and 120 μg/ml of allogeneic peptides were plated in triplicate in 200 μl of complete RPMI-1640 medium in round-bottom 96 wells plates for 6 days at 37° C., 5% CO2. pDCs were matured with 0.5 μM of CpG ODN 1826.
# (§2) Proliferation of CFSE-labeled naive CD4^+CD25^− T cells and phenotype of CD8^+CD45RC^low Tregs were analyzed by flow cytometry on a FACSCanto II cytometer (BD Biosciences) after gating on TCR^+CD4^+ cells or TCR^+CD8^+ cells among live cells (DAPI negative).
# (§3) Extracellular and intracellular staining: For extracellular staining, cells were stained with the following mAbs: anti-TCRαβ (R73, Alexa Fluor 647-conjugated), anti-CD8α (OX8, PE-Cy7-conjugated, Ebiosciences), anti-CD4 (W3.25, PE-Cy7-conjugated), anti-CD45RC (OX22, FITC-conjugated), anti-CD28 (JJ319, biotin-labeled), anti-CD71 (OX26, biotin-labeled), anti-CD25 (OX39, biotin-labeled) and anti-MHC-II (OX6, biotin-labeled).
# In the rat MHC-mismatched heart allograft model, donors (RT1^u) and recipients (RT1^a) are mismatched for all MHC molecules. We therefore aligned donor and recipient MHC I and II amino acids (aa) sequences and designed 82 overlapping 16-mer peptides matching the polymorphic domains of donor MHC I and II molecules (4-6). Peptides were first grouped into pools of 6 to 8 peptides (30 μg/ml of each peptide) and tested in an in vitro assay where immature or mature syngeneic recipient plasmacytoic dendritic cells (pDCs) and sorted-CD8^+CD40Ig Tregs from CD40Ig-treated long-term allograft bearing recipients were cocultured for 3 or 6 days. With immature pDCs, we observed no significant activation of CD8^+CD40Ig Tregs at day 3 or day 6 with any of the allogeneic pools of peptides. After stimulation with mature pDCs and pools of allogeneic peptides we observed at day 3 a slight upregulation of CD25 expression of a small population of CD8^+CD40Ig Tregs, and at day 6, a significant up-regulation of CD25 expression following allogeneic stimulation.
# CD4^+CD25^− T cells [2] = assay: MLR suppressive assay with peptide-stimulated CD8+CD40Ig Tregs; type: cell-based, rat; settings: day 6, donor LEW.1W pDCs, 1:1 effector:suppressor, vs Tregs stimulated by a non-activating peptide
# Method: FIG. 3: Bu31-activated Tregs maintained efficient suppressive activity. Fresh CD8+CD40Ig Tregs and syngeneic CpG-matured pDCs were cocultured for 6 days with either Bu31 or a control peptide. At day 6, Tregs were isolated by cell sorting (TCR+) and their regulatory function was analyzed by measuring their capacity to suppress MLR assay. The relative proportion of naive CFSE-labeled dividing LEW.1A CD4+CD25− T cells after stimulation with donor LEW.1W pDCs was analyzed at day 6 of culture, in the absence or presence of 6 days peptide-stimulated CD8+ Tregs at a 1:1 ratio effector:suppressor. Graphs represent the mean±SEM. *p<0.05 (left). Plots are representative of four independent experiments (right). […]
# as §2
# Here, we investigated whether Bu31-stimulated CD8^+CD40Ig Tregs could efficiently suppress effector T cell proliferation after 6 days coculture and thus maintained their suppressor activity, compared to CD8^+CD40Ig Tregs stimulated with a non-activating control peptide. […] To evaluate this, we measured the relative proportion of dividing CD4^+CD25^− T cells at day 6 of coculture (FIG. 3).
# donor splenocytes = assay: Donor specific alloantibody detection; type: in vivo, rat; settings: long-term surviving treated recipients vs untreated rats, sera >120 days after transplantation
# Method: FIG. 6: Anti-donor immune responses. Allo antibody production was evaluated in naive (n=3), grafted untreated (n=3) and long-term […] (n=4) animals. Sera were collected <30 days after rejection or >120 days after transplantation. Sera were incubated with donor splenocytes and analyzed by flow cytometry for IgG, IgG1 or IgG2b Abs production. Graph represents MFI±SEM.
# Donor specific alloantibody detection: Alloantibodies were analyzed by cytofluorimetry as described elsewhere (14). Briefly, after digestion by collagenase D and red blood cell lysis, allogeneic spleen cells were incubated with diluted (⅛) heat-inactivated serum, and then with FITC-conjugated goat anti-rat IgG antibodies (H+L chain specific) (Jackson Laboratories), a mouse anti-rat IgG1 MAb (MCA 194, Serotec) or IgG2b (MCA 195, Serotec). […] Cells were analyzed using a FACS Canto II cytofluorimeter (BD Biosciences, Mountain View, Calif.) and the results were expressed as mean channel fluorescence for each serum.
# [3] = tested on: heart allograft, LEW.1W donors into LEW.1A recipients; assay: Cardiac allograft survival after in vivo peptide infusion
# Method: Recipients were either untreated (n=9) or treated with continuous infusion of peptide by i.p mini osmotic pumps (ALZET), delivering from day-7 and for 28 days, either 20.83 μg/hour alone (Bu31 0.5 mg/day: n=6) or 40.66 μg/hour in the LEW.1W/LEW.1A (Du51 1 mg/day: n=5) or combined with a depleting anti-CD8 mAb (OX8) (n=2) or BN/LEW.1A (Du51 1 mg/day (BN/1A): n=4) strains combination.
# Animals and cardiac transplantation models: Allotransplantations of heart were performed between whole MHC incompatible LEW.1W (RT1.A^u as donors) and LEW.1A (RT1.A^a as recipients) male rats as previously described (1).
# Peptides treatment in vivo: 16-mer peptides were dissolved in 0.4% DMSO/PBS before injection. […] In the second protocol, mini osmotic pumps (ALZET, Cupertino, Calif., USA) were implanted intraperitoneally (i.p) in recipients and delivered continuously either 20.83 or 41.66 μg/hour of 16-mer peptides for 14 days. A first pump was implanted on day −7 before transplantation and was replaced by a second one at day +7, allowing delivery of 14 or 28 mg of peptide per animal for 28 consecutive days. A depleting anti-CD8α mAb (OX8, IgG1, 3 mg/kg) was injected i.p. twice a week from day −7 until rejection. Allografts were monitored daily by palpation and allograft rejection was defined as complete cessation of palpable heart beat.
# CD4^+CD25^− T cells [4] = assay: In vitro suppressive potential of CD8+CD45RClow Tregs from peptide-treated recipients; type: cell-based, rat; settings: 6 days culture, donor LEW.1W pDCs, different effector:suppressor ratios
# Method: FIG. 7. In vitro suppressive potential of CD8^+CD45RC^low Tregs from Bu31-treated recipients. The proliferation of naive CFSE-labeled LEW.1A CD4^+CD25^− T cells stimulated with donor LEW.1W pDCs was analyzed after 6 days of culture, in the presence of LEW.1A CD8^+CD45RC^low Tregs from naive or Bu31-treated recipients at different effector:suppressor ratio. The CD4^+CD25^− T cell proliferation alone was ˜80% and was given the value 100 in each experiment. Graphs represent the mean±SEM of relative CD4^+CD25^− T cell proliferation. *p<0.05.
# For MLR suppressive assays, sorted CFSE-labeled CD4^+CD25^− T cells from LEW.1A origin (5×10^4 cells) and allogeneic pDCs isolated from donor LEW.1W animals (1.25×10^4 cells) were plated in triplicate for 6 days in a final volume of 200 μl of completed RPMI-1640 medium in round-bottom 96 wells plates with FACS-sorted freshly purified naive CD8^+CD45RC^low Treg cells or peptide-expanded CD8^+CD40Ig Treg cells (5×10^4 cells).
# as §2
# CD8^+CD40Ig Tregs [5] = assay: Cytokine ELISA in Treg/pDC coculture supernatants after peptide stimulation; type: cell-based, rat; settings: 6 days peptide stimulation with pDCs
# Method: (§4) FIG. 2: CD8+ Tregs phenotype following ex vivo allopeptide stimulation. (A) Tregs and syngeneic CpG-matured pDCs were cultured for 6 days, alone, with a control peptide or with peptide Bu31. Expression of indicated markers was analyzed on CD8+ Tregs in the culture supernatant by ELISA (A) or by flow cytometry (B) after in vitro stimulation. Graphs represent the mean±SEM. *p<0.05, **p<0.01, n=4 to 7.
# as §1
# Cytokine assays: IFNγ, IL-10 were measured in coculture supernatants using ELISA from BD Biosciences OptEIA, IL-12 and TGFβ using ELISA from Invitrogen and R&D System respectively.
# CD8^+CD40Ig Tregs [6] = assay: Flow cytometry phenotype of CD8+ Tregs after ex vivo peptide stimulation; type: cell-based, rat; settings: 6 days of peptide stimulation
# Method: as §4, §1, §3
# For intracellular staining, cells were then stained for Foxp3 (biotin-labeled, Ebiosciences) using BD cytofix/cytoperm kit (BD Biosciences) according to the manufacturer's instructions.
# All biotinylated mAbs were visualized using Streptavidin-PerCP.Cy5.5 (BD Biosciences). A FACSCanto II cytofluorimeter (BD Biosciences) was used to measure fluorescence, and data were analyzed using FlowJo software (Tree Star, Inc. USA, version 7.6.5). Cells were first gated by their morphology and dead cells excluded by selecting DAPI negative viable cells.
# cardiac grafts = assay: Morphometric analysis of cardiac grafts (chronic rejection); type: in vivo, rat; settings: long-term surviving peptide-treated recipients
# Method: Morphometric analysis of cardiac grafts: The upper third of the graft was fixed in paraformaldehyde and embedded in paraffin. Five μm coronal sections were stained with hematoxylin-eosine-safron. Tissues were analyzed by a pathologist blinded to the groups and chronic rejection was evaluated as previously described (16).
sequence,measurement,setting,value
LRYDSDVGEYRAVTE (Synthetic 15-mer peptide 31-15),"activation of CD8+CD40Ig Tregs (CD25 upregulation), in words",CD8^+CD40Ig Tregs [1],much stronger and significant CD25 upregulation
SDVGEYRAVTELGR (Synthetic 14-mer peptide 31-14),"activation of CD8+CD40Ig Tregs (CD25 upregulation), in words",CD8^+CD40Ig Tregs [1],much stronger and significant CD25 upregulation
YLRYDSDVGEYR (Synthetic 12-mer peptide 31-10),"activation of CD8+CD40Ig Tregs (CD25 upregulation), in words",CD8^+CD40Ig Tregs [1],much stronger and significant CD25 upregulation
YLRYDSDVGEYRAV (Synthetic 14-mer peptide 31-13),"activation of CD8+CD40Ig Tregs (CD25 upregulation), in words",CD8^+CD40Ig Tregs [1],much stronger and significant CD25 upregulation
YLRYDSDVGEYRAVTE (Synthetic Subdominant peptide Bu31) [16-mer from the β1 chain of donor MHC class II RT1.B^u],suppressive activity of peptide-stimulated Tregs: relative proportion of dividing CD4+CD25− effector T cells,CD4^+CD25^− T cells [2],maintained an efficient suppressive activity
same,IgG1 alloantibodies production,donor splenocytes,total inhibition
same,IgG2b alloantibodies production,donor splenocytes,total inhibition
same,total IgG alloantibodies production,donor splenocytes,total inhibition
same,prolongation of allograft survival,"[3]; 0.5 mg/day i.p. mini-osmotic pumps for 28 days from day -7, monotherapy",not sufficient to induce prolongation of allograft survival
same,"indefinite allograft survival, share of recipients","[3]; 1 mg/day i.p. mini-osmotic pumps for 28 days from day -7, LEW.1W/LEW.1A",80%
same,"rejection of Brown Norway (BN) third party grafts, time after transplantation","[3]; peptide infusion 1 mg/day, BN/LEW.1A combination",7 days
same,ex vivo suppressive activity of CD8+CD45RClow Tregs from treated recipients on effector CD4+ T cell proliferation,CD4^+CD25^− T cells [4],superior suppressive activity
same,IFNγ expression in culture supernatant,CD8^+CD40Ig Tregs [5],significant increased expression
same,IL-10 expression in culture supernatant,CD8^+CD40Ig Tregs [5],no modification
same,IL-12 expression in culture supernatant,CD8^+CD40Ig Tregs [5],no modification
same,TGFβ expression in culture supernatant,CD8^+CD40Ig Tregs [5],no modification
same,CD28 expression on CD8+ Tregs,CD8^+CD40Ig Tregs [6],upregulation
same,CD71 expression on CD8+ Tregs,CD8^+CD40Ig Tregs [6],upregulation
same,Foxp3 expression in CD8+ Tregs,CD8^+CD40Ig Tregs [6],no modification
same,MHC class II expression on CD8+ Tregs,CD8^+CD40Ig Tregs [6],upregulation
same,"signs of chronic rejection, anatomopathologic analysis of the graft",cardiac grafts,no signs of chronic rejection
same,"upregulation of CD25 expression at the cell surface of CD8+CD40Ig Tregs, ratio of % CD25 positive cells vs. no peptide","CD8^+CD40Ig Tregs [1]; individual 16-mer peptide, mean±SEM",1.67±0.09 fold
